Data reported in patent US5916872A, “Cyclic peptides having broad spectrum antimicrobial activity” (IntraBiotics Pharmaceuticals, Inc., priority 1996, dated 1999).
≈ marks a conversion by molar mass, not a printed value. Positions of bridges follow the written chain, without caps; N, C: chain ends. Residues, ends and D or L forms follow the SMILES beside them.

Experiments:
Format in all cases: cell-based
[1] = system: MRSA (methicillin resistant Staphylococcus aureus); assay: Modified NCCLS minimum inhibitory concentration (MIC) assay; details: Table 4
Description: (§1) Microorganisms: Escherichia coli ML-35p and vancomycin-resistant Enterococcus faecium (VRE) were obtained from Dr. Robert Lehrer (UCLA, see also, Lehrer et al., 1988, J. Immunol. Methods 108:153) and Dr. Gary Schoolnik (Stanford), respectively. Pseudomonas aeruginosa (ATCC 9027), Candida albicans (ATCC 1023), and methicillin resistant Staphylococcus aureus (ATCC 33591) were obtained from the American Type Culture Collection, Rockville, Md.
(§2) 8.3 Modified NCCLS Minimum Inhibitory Concentration (MIC) Assay
(§3) The National Committee for Clinical Standards (NCCLS) requires that test compounds be prepared as stock solutions in Meuller-Hinton Broth ("MHB") at 512 μg/mL. The stock solutions are serially diluted (two-fold) in medium and each serial dilution added 1:1 to medium containing 1×10^6 CFU/mL bacteria (National Committee on Clinical Laboratory Standards, December 1994, "Performance Standards for Antimicrobial Susceptibility Testing," NCCLS Document M100-S5 Vol. 14, No. 16; Methods for Dilution Antimicrobial Susceptibility Test for Bacteria that Grow Aerobically, 3d Ed., Approved Standard M7-A3, National Committee for Clinical Standards, Villanova, Pa.).
(§4) Thus, following the NCCLS protocol would result in serial two-fold dilutions containing less peptide than calculated, yielding erroneously high MIC values.
(§5) To overcome this problem, the following modified NCCLS assay is the preferred method for determining MICs of the cyclic peptides of the invention.
(§6) Preparation of MIC assay plates:
(§7) 1. Prepare a fresh overnight culture of test organism in Meuller-Hinton broth (MHB; Becton-Dickinson, Cockysville, Md., BB2 #11443).
(§8) 2. Dilute the culture to approximately 4×10^5 CFUs/mL with fresh MHB and dispense 100 μL aliquots into each well of a sterile 96-well microtiter plate.
(§9) 3. From the peptide stock solution, prepare serial two-fold dilutions (from 1280 μg/mL to 0.625 μg/mL) using acetic acid (0.01%) as a diluent, or, for peptide concentrations lower than 50 μg/mL, sodium acetate (10 mM, pH 5) containing Human Serum Albumin (HSA; 0.1% w/v) as a diluent.
(§10) 4. Dispense triplicate aliquots (11 μL) of each serial dilution into the wells of the microtiter plate.
(§11) 5. Incubate the plate for 16-18 hours, without aeration, at 37° C. (bacteria) or 30° C. (yeast).
(§12) 6. Examine the plates and evaluate each well for turbidity (cell growth). Often, MRSA will settle out and form a pellet at the bottom of the well. MRSA can be evaluated by placing the microtiter plate on a stand and examining the bottom of the well using a tilted mirror.
(§13) 7. The minimum inhibitory concentration (MIC) is defined as the lowest peptide concentration that inhibits all visible growth. If the MIC values for each of the triplicate samples differ, the MIC is obtained by averaging the results of the three samples. […]

Pseudomonas aeruginosa = assay: as above; details: Table 4; Psa is Pseudomonas aeruginosa
Description: as §1, §2, §3, §4, §5, §6, §7, §8, §9, §10, §11, §12, §13

[2] = system: MRSA (methicillin resistant Staphylococcus aureus); assay: Kinetic bactericidal assay; details: 2 μg/mL peptide, from an initial value of 3.3 × 10^5 CFUs
Description: as §1
8.4 Kinetic Bactericidal Assay
The following assay is used to determine the rate at which a cyclic peptide kills a target microorganism, as well as to determine if a cyclic peptide is bactericidal or bacteriostatic.
1. Dispense 200 μL of log-phase cells in LTM (4×10^5 CFUs/mL) into each well of a 96-well microtiter plate solution.
2. At time T=0 minutes, add 22 μL of 1280 μg/mL peptide to well A1 and mix by triturating 3 times.
3. Wait 30 seconds and add 22 μL of a second concentration of peptide the to the next well (A2) and mix by triturating 3 times.
4. Repeat the process, staggering each peptide addition by 30 seconds, until all concentrations of peptide have been added. Typically, 4-fold serial dilutions of stock peptide (i.e., 1280, 320, 80, 20 and 5 μg/mL peptide diluted 1:10 into each well) produces good comparative kill curves. Add 22 μL of 0.01% acetic acid to one well as a control.
5. At time T=15 minutes, mix well A1 by triturating 3 times and transfer 20 μL to an empty sterile petri dish (100 mm×15 mm).
6. Quickly add 20 mL of tempered (50° C.) TSA and gently swirl plate to mix.
7. Repeat steps 5-6 until all peptide concentrations have been plated.
8. For the control well, dilute the sample 1:100 with LTM and plate 50 μL of the dilution to obtain an accurate determinations of CFUs.
9. After the agar has solidified, invert the plates and incubate at 37° C. (bacteria) 30° C. (yeast) for 18-24 hours.
10. Repeat steps 5-9 for all peptide concentrations and control samples at times T=30, 60, 120, and 240 minutes.
11. Count the number of CFUs per plate and estimate the reduction in CFUs for each peptide concentration. In order to assess an effect using this assay, the peptide must reduce the CFUs by at least one log (i.e., at least 800 CFUs per plate). Although such numbers are higher than recommended for accuracy (30-300 CFUs/plate), log-order changes in recoverable CFUs indicate significant bacteriocidal efficacy.
12. To obtain comparative kill curves, plot the log of fractional survival versus peptide concentration.

Compound | MIC Values MRSA [1] | MIC Values Psa (Pseudomonas aeruginosa) | MRSA Kill Kinetics 15 min [2] | MRSA Kill Kinetics 120 min [2]
CC(C)C[C@@H]1NC(=O)[C@H](Cc2c[nH]c3ccccc23)NC(=O)[C@H](C(C)C)NC(=O)[C@@H]2CSSC[C@H](NC1=O)C(=O)N[C@@H](Cc1ccc(O)cc1)C(=O)N[C@H]1CSSC[C@H](NC(=O)[C@H](Cc3ccccc3)NC(=O)[C@H](CCCNC(=N)N)NC(=O)[C@H](CCCNC(=N)N)NC(=O)[C@H](CCCNC(=N)N)NC1=O)C(=O)N[C@@H](C(C)C)C(=O)N2 [cyclo(CYCRRRFCVCVWL)] (cyclo(CRRRFCVCVWLCY); disulfide 1-6, 8-12) | 4 µg/mL (≈ 2.37 µM) | > 32 µg/mL | 2.65 log reduction | 2.18 log reduction
CC(C)C[C@@H]1NC(=O)[C@H](CCCNC(=N)N)NC(=O)[C@H](C(C)C)NC(=O)[C@@H]2CSSC[C@H](NC1=O)C(=O)N[C@@H](Cc1ccc(O)cc1)C(=O)N[C@H]1CSSC[C@H](NC(=O)[C@H](Cc3ccccc3)NC(=O)[C@H](CCCNC(=N)N)NC(=O)[C@H](CCCNC(=N)N)NC(=O)[C@H](CCCNC(=N)N)NC1=O)C(=O)N[C@@H](C(C)C)C(=O)N2 [cyclo(CYCRRRFCVCVRL)] (cyclo(CRRRFCVCVRLCY); disulfide 1-6, 8-12) | 16 µg/mL (≈ 9.67 µM) | 2.67 µg/mL (≈ 1.61 µM) | – | –
RLCYCRRRFCVCVV [RLCYCRRRFCVCVV.dagger.] | 2 µg/mL | 4 µg/mL | – | –
WLCYCRRRFCVCV [WLCYCRRRFCVCV.dagger.] | 3.33 µg/mL | > 32 µg/mL | 2.12 log reduction | 2.89 log reduction
RLCYCRRRFCVCV | 10.7 µg/mL | 2 µg/mL | – | –
CC(C)[C@@H]1NC(=O)[C@@H]2CSSC[C@H](NC(=O)[C@H](Cc3ccc(O)cc3)NC(=O)[C@H](Cc3c[nH]c4ccccc34)NC1=O)C(=O)N[C@@H](Cc1ccc(O)cc1)C(=O)N[C@H]1CSSC[C@H](NC(=O)[C@H](Cc3ccccc3)NC(=O)[C@H](CCCNC(=N)N)NC(=O)[C@H](CCCNC(=N)N)NC(=O)[C@H](CCCNC(=N)N)NC1=O)C(=O)N[C@@H](C(C)C)C(=O)N2 [cyco(CYCRRRFCVCVWY), cyclo(CYCRRRFCVCVWY)] (cyclo(CRRRFCVCVWYCY); disulfide 1-6, 8-12) | 8 µg/mL (≈ 4.61 µM) | 32 µg/mL (≈ 18.4 µM) | – | –
WLCYCRRRFCVCVGR [WLCYCRRRFCVCVGR.dagger.] | – | – | 1.79 log reduction | 2.26 log reduction
RGGRLCYCRRRFCVCVGR | 4 µg/mL | 0.5 µg/mL | – | –
WLCYCRRRFCVCV | 32 µg/mL | 13 µg/mL | – | –
WLCYCRRRFCVCVGR | 32 µg/mL | 32 µg/mL | < 0.46 log reduction | < 0.46 log reduction
CC(C)C[C@@H]1NC(=O)[C@H](CCCNC(=N)N)NC(=O)CNC(=O)CNC(=O)[C@H](CCCNC(=N)N)NC(=O)[C@H](CCCNC(=N)N)NC(=O)CNC(=O)[C@H](C(C)C)NC(=O)[C@@H]2CSSC[C@H](NC1=O)C(=O)N[C@@H](Cc1ccc(O)cc1)C(=O)N[C@H]1CSSC[C@H](NC(=O)[C@H](Cc3ccccc3)NC(=O)[C@H](CCCNC(=N)N)NC(=O)[C@H](CCCNC(=N)N)NC(=O)[C@H](CCCNC(=N)N)NC1=O)C(=O)N[C@@H](C(C)C)C(=O)N2 [cyclo(CYCRRRFCVCVGRRGGRL)] (cyclo(GGRLCYCRRRFCVCVGRR); disulfide 5-14, 7-12) | 5.33 µg/mL (≈ 2.49 µM) | 8 µg/mL (≈ 3.74 µM) | 1.2 log reduction | 1.17 log reduction
WYCYCRRRFCVCV | 43 µg/mL | 32 µg/mL | – | –
